{
  "source": "patent US11320422B2",
  "about": "“Inhibition of protein degradation for improved production” (LONZA LTD, priority 2016, dated 2022)",
  "key": {"GS-KO CHO host cell line": {"test_system": "GS-KO CHO host cell line", "test": "Host selection/adaptation in presence of inhibitors, then transient transfection with cB72.3 (Example 8)", "assay_type": "cell-based, Chinese hamster", "method": "In order to ascertain if adapted/selected host cells with the ability to produce enhanced recombinant protein yields and quality could be generated by culturing the Lonza GS-KO CHO host cell line in the presence of the protein degradation inhibitors, the GS-KO host cell line was cultured in the presence of various protein degradation inhibitors for a series of passages. The host cell line was therefore cultured in 20 ml CD-CHO+6 mM glutamine+the appropriate inhibitors as outlined below in 125 ml Erlenmeyer shake flasks at 37° C. under a 5% CO2 in air environment with shaking at 140 rpm. At each passage the new culture was seeded at 0.2×10^6 viable cells/ml. Cells were passaged when the cell number exceeded 1×10^6 viable cells per mL.\nHowever, cells in the presence of this concentration of MG132 were subjected to 4 passages at this concentration and then a further 2 in the absence of the drug. At this time there was sufficient cells for the transfection following passage of the cells without the drug (2nd experiment of the two) to be undertaken.\nTransient transfection of the emerging cell host pools described above was then performed via electroporation with 20 μg of the model cB72.3 plasmid and 1×10^7 viable cells and the cells placed in 20 ml of fresh CD-CHO media plus 6 mM glutamine in 125 ml Erlenmeyer shake flasks and cultured at 37° C. under a 5% CO2 in air environment with shaking at 140 rpm. This was undertaken for the host cell pools that had been in the presence of the inhibitors continually and those that had been passaged for an additional two passages in the absence of the inhibitors. Samples were taken from these batch cultures to monitor growth and antibody titre at 48, 96 and 168 hours post-transfection."}, "[1]": {"test": "Initial assessment of inhibitor concentrations on recombinant CHO cell line growth (viable cell number, culture viability, ViCell)", "assay_type": "cell-based, Chinese hamster", "settings": "Chinese hamster", "method": "(§1) 96 deep well plates (Nunc) were seeded at 4×10^6 cells/ml at 300 μl per well for analysis of proteasome and ERAD inhibitors. Triplicate wells were prepared for each inhibitor for each of the panel of cell lines. […] 100 μl of the well volume was combined with 900 μl PBS and a cell count performed using the ViCell apparatus. The remaining 200 μl was centrifuged at 1000 rpm for 5 minutes and the supernatant and pellet stored at −20° C. prior to further analysis.\n(§2) Initial assessment was performed across two experiments using one model recombinant CHO antibody producing cell line (CH0149) to determine the appropriate concentrations of each inhibitor to use for the assessment of the full panel (FIGS. 1A-1C and 2A-2F)."}, "[2]": {"test_system": "recombinant CHO antibody producing cell line (CH0149)", "test": "Initial assessment of inhibitor concentrations on recombinant CHO cell line growth (viable cell number, culture viability, ViCell)", "assay_type": "cell-based, Chinese hamster", "method": "as §1, §2"}, "[3]": {"test_system": "CHOK1 GS-KO cells producing antibody A", "test": "Cell line construction with MSX plus proteasome inhibitor selection (Example 5), growth and antibody concentration by ELISA / Protein A HPLC", "assay_type": "cell-based, Chinese hamster", "method": "The electroporation was performed in the GSKO suspension cell line. A count was performed of the culture in mid exponential phase and the remaining culture centrifuged at 1000 rpm and the supernatant removed. 1×10^7 cells were required per electroporation cuvette in a volume of 700 μl. Therefore, the pellet was resuspended to achieve the concentration of cells for the number of electroporations required. Electroporations were performed with 20 μg linearized plasmid at 300 V, a capacitance of 900 μF and using cuvettes with a 4 mm gap. Each cuvette was added to 20 ml of fresh media with 2 ml of that volume used to rinse out the cuvette. For the cell line construction experiment, then all electroporations were pooled together to give a final volume of 300 ml. This was thoroughly mixed and then distributed in 10 ml volumes between 30×T75 tissue culture flasks. The flasks were then incubated statically at 36.5° C. with 5% CO2. 24 hours after the transfection, the glutamine synthetase inhibitor (MSX) was added to provide selection of the cells successfully taking up the plasmid and expressing the selection marker GS. 5 ml volumes of the MSX stocks with CD-CHO media were added to give either a final culture concentration of either 25, 37.5 or 50 μM MSX. The addition of the proteasome inhibitors was then performed at the appropriate time-point following MSX selection as determined by the design of experiments layout detailed in Table 3. Filter sterilized DMSO was added as a control where no drug was required in the combinations. Cultures were then incubated statically at 36.5° C. and 5% CO2 for approximately two weeks following addition of MSX. […] Once a viable cell concentration of at least 0.2×10^6 cells/ml was achieved, the cultures were moved into 20 ml shake flask cultures at 36.5° C. and 5% CO2 with shaking at 140 rpm. From this point onwards routine sub-culture was performed every 3-4 days.\nAffiniPure F(ab′)2 fragment goat anti-human IgG Fc fragment specific (minimal cross-reaction to bovine, horse, mouse serum proteins) (Jackson ImmunoResearch Laboratories Inc) was diluted in coating buffer (15 mM Na2CO3 and 35 mM NaHCO3, pH 9.7) to give a concentration of […]. 100 μl of the stock was then used to coat each well of 96 well plate (Nunc). Plates were covered with foil and stored at 4° C. overnight. […] Plates were again washed and ready-made TMB substrate (Cell signalling technology #7004) was added (100 μl/well). […] The optical density of each well was then measured at 450 nm. The concentration of the supernatant samples were then determined from the standard curve of the known concentrations of IgG. […]"}, "[4]": {"test_system": "GS KO Lonza host cells expressing cB72.3 monoclonal antibody", "test": "Cell line construction with MSX plus proteasome or ERAD inhibitors (Example 6), cB72.3 titre by Octet and western blot", "assay_type": "cell-based, Chinese hamster", "settings": "for monoclonal antibody titre higher than control pool: 31.25 nM MG-132 and 37.5 μM MSX, 168 h of batch culture; for cell specific productivities compared to MSX control pools: MG-132 particularly 31.25 nM, various concentrations of epoxomicin and eeyarestatin", "method": "Multiple electroporations with 20 μg of linearized GS cB72.3 monoclonal antibody containing construct with 1×10^7 viable GS KO Lonza host cells were performed and pooled. This pool was then set up into 10 ml cultures, each containing approximately 0.25×10^6 cells and 10 μg DNA, and immediately placed in a static incubator at 37° C. with 5% CO2. Cell media consisted of commercially available CD-CHO media without glutamine and the addition of MSX and inhibitors as outlined below. 24 hours post transfection, MSX was added to the media to make the culture volume up to 15 ml and provide a final MSX concentration of 37.5 μM. The different inhibitors were then added to the pools a further 24 hours after the addition of MSX. A range of concentrations were added for each inhibitor to give the final concentrations in the flasks as described in FIG. 13. Only one inhibitor treatment was performed per flask (no combined treatments) and all were performed in combination with 37.5 μM MSX as outlined in FIG. 13.\nThe cell pools were then left in the static incubator at 37° C. and 5% CO2 until the viable cell concentration in the flask reached ˜0.2×10^6 cells/ml. When this viable cell number was achieved, cell pools were moved into 125 mL Erlenmeyer shake flasks and cultured in a 20 mL volume of CD-CHO including MSX and the appropriate concentration of inhibitor at 37° C. under a 5% CO2 in air environment with shaking at 140 rpm. 24 out of 33 transfections/pools were eventually moved across to shake flasks as they exceeded the required viable cell concentration described above.\nCell pools were then cultured in the presence of the appropriate inhibitor (and inhibitor concentration and 37.5 μM MSX) in 20 mL of CD-CHO for several passages (each being seeded at 0.2×10^6 viable cells/ml) before batch cultures were set up for each to assess the growth of the pool and to sample for product concentration over the duration of culture. For this purpose 20 ml batch cultures (seeded at 0.2×10^6 viable cells/ml) were sampled at 48, 96 and 168 hours for growth and titre information. The cell pools were also then passaged for an additional two passages in the absence of the inhibitors (but containing MSX) to determine if any changes in growth or productivity were observed, i.e. were the improved culture titres only maintained if the inhibitor was continually present."}, "apoptosis": {"test_system": "apoptosis", "settings": "cited from earlier work"}, "ER translocation": {"test_system": "ER translocation", "settings": "in vivo; cited from earlier work"}, "[5]": {"settings": "immediately after treatment with inhibitors"}, "[6]": {"settings": "two passages in the absence of inhibitors"}, "[7]": {"settings": "host initially cultured with Eeyarestatin I or 6.25 nM Epoxomicin, then 2 passages without inhibitor"}},
  "note": "Where “and” joins values, the source holds several entries; their conditions need not be identical. Equal entries are not always repeated. Where a SMILES comes first, the peptide text is derived from it. The star is where a group is joined. Cbz = O=C(OCc1ccccc1)*",
  "data": [
    {"smiles": "CC(C)C[C@@H](C=O)NC(=O)[C@H](CC(C)C)NC(=O)[C@H](CC(C)C)NC(=O)OCc1ccccc1", "note": "[MG-132, Z-Leu-Leu-Leu-al] (Cbz-Leu-Leu-Leu-aldehyde)", "values": [
      {"measurement": "host cell growth in presence of inhibitor", "setting": "GS-KO CHO host cell line; 125 nM, transfection immediately after culture with drug", "result": "not sufficient cells"},
      {"measurement": "cytotoxicity at 48 h", "setting": "[1]; 0.5 and 1 μM, 48 hours after addition, compared to control, read-out: decrease in viable cell number", "result": "~40", "unit": "%"},
      {"measurement": "cytotoxicity at 0.5 μM", "setting": "[1]; read-out: reduction of cell concentration and culture viability compared to control", "result": "30 to 60", "unit": "%"},
      {"measurement": "effect on culture viability and cell numbers", "setting": "[2]; 0.1 μM", "result": "less of an effect"},
      {"measurement": "reduction in the culture viability to", "setting": "[2]; 0.5 and 1 μM, 48 hours after addition", "result": "approximately 50%"},
      {"measurement": "cell numbers and culture viability", "setting": "[2]; 5 and 10 μM, 48 hours after addition", "result": "dramatically reduced"},
      {"measurement": "increase in the amount of antibody in cell culture supernatant over MSX alone pools", "setting": "[3]; 0.0625 μM MG-132 and 37.5 μM MSX, 192 hours of batch culture", "result": "~4", "unit": "fold"},
      {"measurement": "viable cell counts following electroporation and cell line construction", "setting": "[3]; concentrations used in Example 2", "result": "poor viable cell counts"},
      {"measurement": "monoclonal antibody titre higher than control pool", "setting": "[4]; cells continually cultured with inhibitor", "result": "~4", "unit": "fold"},
      {"measurement": "monoclonal antibody titre higher than control pool", "setting": "[4]; two passages in the absence of inhibitor", "result": "~4", "unit": "fold"},
      {"measurement": "final inhibitor concentrations that resulted in the emergence of cell pools", "setting": "[4]; alongside 37.5 μM MSX", "result": "15.625 nM and 31.25 nM"},
      {"measurement": "cell specific productivities compared to MSX control pools", "setting": "[4]; [5]", "result": "enhanced"},
      {"measurement": "cell specific productivities compared to MSX control pools", "setting": "[4]; [6]", "result": "enhanced"},
      {"measurement": "concentration shown to induce apoptosis", "setting": "apoptosis", "result": 1.5, "unit": "µM"}
    ]},
    {"smiles": "CC1(C)C(N(O)C(=O)Nc2ccc(Cl)cc2)N(c2ccc(Cl)cc2)C(=O)N1CC(=O)N/N=C/C=C/c1ccc([N+](=O)[O-])o1", "note": "(stereo not shown) [eeyarestatin I]", "values": [
      {"measurement": "cell specific productivity and titre", "setting": "GS-KO CHO host cell line; 0.1 μM in culture media for selection/adaptation of host", "result": "increase in cell specific productivity and titre"},
      {"measurement": "transient antibody titres versus DMSO control cells", "setting": "GS-KO CHO host cell line; host cultured with 0.1 μM Eeyarestatin I before transfection", "result": "higher transient titres"},
      {"measurement": "transient antibody titres versus DMSO control cells", "setting": "GS-KO CHO host cell line; [7]", "result": "higher transient titres"},
      {"measurement": "decrease in viable cell number", "setting": "[2]; 1 μM, 48 hours after addition, two experiments", "result": "15-30%"},
      {"measurement": "effect on the culture viability parameters", "setting": "[2]; 10 μM, two experiments", "result": "consistently showed an effect"},
      {"measurement": "cell specific productivities compared to MSX control pools", "setting": "[4]; [5]", "result": "enhanced"},
      {"measurement": "cell specific productivities compared to MSX control pools", "setting": "[4]; [6]", "result": "enhanced"},
      {"measurement": "concentration sufficient to block ER translocation", "setting": "ER translocation", "result": 8, "unit": "µM"}
    ]},
    {"smiles": "CC[C@H](C)[C@H](NC(=O)[C@H]([C@@H](C)CC)N(C)C(C)=O)C(=O)N[C@H](C(=O)N[C@@H](CC(C)C)C(=O)[C@@]1(C)CO1)[C@@H](C)O", "note": "[epoxomicin]", "values": [
      {"measurement": "transient antibody titres versus DMSO control cells", "setting": "GS-KO CHO host cell line; [7]", "result": "higher transient titres"},
      {"measurement": "decrease in viable cell numbers", "setting": "[2]; 0.05 μM, 48 hours after addition, two experiments", "result": "30-50%"},
      {"measurement": "detrimental effects over time", "setting": "[2]; 0.01, 0.005 and 0.001 μM", "result": "not showing any detrimental effects until 72 hours"},
      {"measurement": "viable cell number", "setting": "[2]; 0.01, 0.005 and 0.001 μM", "result": "increase in viable cell number"},
      {"measurement": "decrease in viable cell number", "setting": "[2]; 0.5 and 1 μM, 48 hours after addition, compared to control", "result": 90, "unit": "%"},
      {"measurement": "increase in antibody concentration over control pools generated with MSX alone", "setting": "[3]; 0.025 μM epoxomicin and 37.5 μM MSX, 192 hours of batch culture", "result": "3-7 fold"},
      {"measurement": "maximum viable cell number", "setting": "[3]; pool CLC18 constructed with 0.025 μM epoxomicin and 37.5 μM MSX, batch culture without inhibitor", "result": "5.328×10^6 cells/ml"},
      {"measurement": "cell specific productivities compared to MSX control pools", "setting": "[4]; [5]", "result": "enhanced"},
      {"measurement": "cell specific productivities compared to MSX control pools", "setting": "[4]; [6]", "result": "enhanced"}
    ]}
  ]
}
